From US20030092004A1 (priority 2001, published 2003)
“Also recorded” adds a separate entry of the source. Like-named read-outs stand apart in the source and are kept apart here.

What was measured:
NR1/NR3B receptors = NR1/NR3B receptors (Rattus norvegicus, UniProt P35439+Q8VHN2); assay: Two-electrode voltage-clamp recording of whole-cell currents in Xenopus oocytes injected with NR1 and NR3B cRNA; assay type: cell-based; conditions: for effect on glycine-evoked NR1/NR3B currents on co-application: doses maximally effective at classical NMDARs
Protocol: Currents were recorded in 1.5 mM Ba^2+ Ringers' solution from oocytes injected with 2 ng of NR1 cRNA and 12 ng of NR3B cRNA.
NR3B cRNA for oocyte expression was produced as follows. The full-length NR3B cDNA was constructed in the pCMV6-XL4 vector (OriGene Technologies, Inc., Rockville, Md.), which contains a T7 promoter upstream of the cDNA insert. […] The truncated cRNA could potentially encode a dominant negative form of NR3B. Therefore, a new vector was constructed to facilitate production of exclusively full-length NR3B cRNA. Construction of this vector proceeded as follows. NR1 cDNA was excised from the pGEM-HE/NR1 vector (a gift from S. F. Heinemann) by digestion with EcoRI and the two ends of the truncated pGEM-HE vector were re-ligated. The truncated pGEM-HE vector retained the 5′ and 3′ UTRs of the X. laevis β-globin gene for high level protein expression in frog oocytes. The SfoI-KpnI fragment of truncated pGEM-HE, which contains the T7 promoter, was replaced with the PvuII-KpnI fragment of pBluescript II KS, which contains the T3 promoter, to generate pJC32. The abbreviated multiple cloning site of pJC32 was then replaced with the multiple cloning site from pcDNA3.1(+) (Invitrogen, Carlsbad, Calif.) by ligating the 102 bp PmeI fragment of pcDNA3.1(+) into the 3 kb SmaI-EcoRV fragment of pJC32 to generate pJC34. Oligos encoding restriction sites for AscI, PacI, and PmeI (ctagc[…]g (SEQ ID NO:52) and ctagc[…]g (SEQ ID NO:53)) were annealed and ligated into the NheI site of pJC34. The resulting vector, pJC39, contains three rare restriction sites downstream of the multiple cloning site to facilitate linearization prior to in vitro transcription using T3 RNA polymerase.
The full-length NR3B (B4 form) cDNA was then excised from pCMV6-XL4 by digestion with EcoRI and XbaI, and the 3.2 kb fragment was ligated into EcoRI/XbaI-digested pJC39. The resulting vector, pJC42, was linearized with PmeI, and in vitro transcription was performed using the mMessage mMachine T3 kit (Ambion, Inc., Austin, Tex.) according to the manufacturer's instructions.
Micropipettes were filled with 3M KCl.

NR1/NR3A receptors = NR1/NR3A receptors (Rattus norvegicus, UniProt P35439+Q9R1M7); assay: Two-electrode voltage recording of glycine-evoked currents in oocytes injected with NR1 and NR3A subunits
Protocol: Microinjection of oocytes and electrophysiological recordings were performed as follows. Physiological and pharmacological properties of NMDA receptor subunits were characterized in the X. laevis oocyte expression system. […] X. laevis oocytes were harvested and defolliculated by digestion with collagenase (2 mg/ml) for 2 hrs. Twenty to 40 ng of cRNA were injected into each oocyte using glass pipettes with a tip size of 20-40 μm in diameter. Electrophysiological recordings were performed from whole oocytes 2-7 days after injection using a dual-electrode voltage-clamp amplifier (Model OC-725A, Warner Instrument, Hamden, Conn.). Micropipettes were filled with 3M KCl. The bath solution contained 115 mM NaCl, 2.5 mM KCl, 1.5 mM BaCl2, and 10 mM Hepes at pH 7.4. Drugs were applied to oocytes via a rapid perfusion system. Data were collected at 2.2 to 11.1 Hz at room temperature using the MacLab/4e A/D converter (AD Instruments, Mountain View, Calif.). Data analysis was performed using the programs Chart (AD Instruments, Mountain View, Calif.) and Microsoft Excel.

NR1/NR2A receptors = NR1/NR2A receptors (Rattus norvegicus, UniProt P35439+Q00959); assay: Two-electrode voltage-clamp recording of NMDA plus glycine-evoked currents in Xenopus oocytes expressing NR1/NR2A; assay type: cell-based; conditions: for effect on NR1/NR2A currents: 100 μM NMDA plus 10 μM glycine
Protocol: Microinjection of oocytes and electrophysiological recordings were performed as follows. Physiological and pharmacological properties of NMDA receptor subunits were characterized in the X. laevis oocyte expression system. Full-length cDNAs encoding NMDA receptor subunits were linearized and used as templates for synthesis of cRNA by in vitro transcription using T3 or T7 RNA polymerase (Ambion, Inc., Austin, Tex.). The DNA template was removed by DNase I digestion, and the RNA was purified by phenol/chloroform extraction and ethanol precipitation. The RNA was resuspended in water at 1 μg/μl and stored in −80° C. freezer until use. X. laevis oocytes were harvested and defolliculated by digestion with collagenase (2 mg/ml) for 2 hrs. Twenty to 40 ng of cRNA were injected into each oocyte using glass pipettes with a tip size of 20-40 μm in diameter. […] Micropipettes were filled with 3M KCl. […] Drugs were applied to oocytes via a rapid perfusion system. Data were collected at 2.2 to 11.1 Hz at room temperature using the MacLab/4e A/D converter (AD Instruments, Mountain View, Calif.). Data analysis was performed using the programs Chart (AD Instruments, Mountain View, Calif.) and Microsoft Excel.

[1] = concentration of compound not given or dose-dependent
[2] = no glutamate/NMDA, 1.5 mM Ba2+ Ringers' solution

Sequence of NR1/NR3B receptors (Q8VHN2 25-1002, other chains not shown): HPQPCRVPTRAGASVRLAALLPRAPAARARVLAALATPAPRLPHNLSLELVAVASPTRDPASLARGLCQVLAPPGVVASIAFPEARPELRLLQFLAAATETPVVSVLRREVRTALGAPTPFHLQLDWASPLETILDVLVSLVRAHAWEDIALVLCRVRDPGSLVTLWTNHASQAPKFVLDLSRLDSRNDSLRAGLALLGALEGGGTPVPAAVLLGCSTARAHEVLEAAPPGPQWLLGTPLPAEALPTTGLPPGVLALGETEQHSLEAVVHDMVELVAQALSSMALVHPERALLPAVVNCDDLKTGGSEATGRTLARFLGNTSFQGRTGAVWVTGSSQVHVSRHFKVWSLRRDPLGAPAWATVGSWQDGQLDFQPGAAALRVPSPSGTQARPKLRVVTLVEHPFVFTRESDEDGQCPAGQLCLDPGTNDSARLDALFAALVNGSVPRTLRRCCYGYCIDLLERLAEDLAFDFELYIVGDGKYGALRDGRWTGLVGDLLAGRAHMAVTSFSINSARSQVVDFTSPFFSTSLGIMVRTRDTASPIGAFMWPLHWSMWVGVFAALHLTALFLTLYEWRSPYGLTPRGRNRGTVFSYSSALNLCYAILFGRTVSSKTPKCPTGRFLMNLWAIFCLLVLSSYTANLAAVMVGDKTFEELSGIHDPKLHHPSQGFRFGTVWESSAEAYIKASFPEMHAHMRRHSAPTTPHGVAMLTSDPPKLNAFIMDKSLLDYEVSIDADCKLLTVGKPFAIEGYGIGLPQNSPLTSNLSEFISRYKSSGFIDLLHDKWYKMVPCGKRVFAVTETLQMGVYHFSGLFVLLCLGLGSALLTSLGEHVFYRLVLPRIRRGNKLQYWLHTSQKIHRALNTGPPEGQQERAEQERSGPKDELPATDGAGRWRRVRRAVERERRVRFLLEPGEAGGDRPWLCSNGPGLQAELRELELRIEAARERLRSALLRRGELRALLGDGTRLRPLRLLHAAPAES
Sequence of NR1/NR3A receptors (Q9R1M7 24-1135, other chains not shown): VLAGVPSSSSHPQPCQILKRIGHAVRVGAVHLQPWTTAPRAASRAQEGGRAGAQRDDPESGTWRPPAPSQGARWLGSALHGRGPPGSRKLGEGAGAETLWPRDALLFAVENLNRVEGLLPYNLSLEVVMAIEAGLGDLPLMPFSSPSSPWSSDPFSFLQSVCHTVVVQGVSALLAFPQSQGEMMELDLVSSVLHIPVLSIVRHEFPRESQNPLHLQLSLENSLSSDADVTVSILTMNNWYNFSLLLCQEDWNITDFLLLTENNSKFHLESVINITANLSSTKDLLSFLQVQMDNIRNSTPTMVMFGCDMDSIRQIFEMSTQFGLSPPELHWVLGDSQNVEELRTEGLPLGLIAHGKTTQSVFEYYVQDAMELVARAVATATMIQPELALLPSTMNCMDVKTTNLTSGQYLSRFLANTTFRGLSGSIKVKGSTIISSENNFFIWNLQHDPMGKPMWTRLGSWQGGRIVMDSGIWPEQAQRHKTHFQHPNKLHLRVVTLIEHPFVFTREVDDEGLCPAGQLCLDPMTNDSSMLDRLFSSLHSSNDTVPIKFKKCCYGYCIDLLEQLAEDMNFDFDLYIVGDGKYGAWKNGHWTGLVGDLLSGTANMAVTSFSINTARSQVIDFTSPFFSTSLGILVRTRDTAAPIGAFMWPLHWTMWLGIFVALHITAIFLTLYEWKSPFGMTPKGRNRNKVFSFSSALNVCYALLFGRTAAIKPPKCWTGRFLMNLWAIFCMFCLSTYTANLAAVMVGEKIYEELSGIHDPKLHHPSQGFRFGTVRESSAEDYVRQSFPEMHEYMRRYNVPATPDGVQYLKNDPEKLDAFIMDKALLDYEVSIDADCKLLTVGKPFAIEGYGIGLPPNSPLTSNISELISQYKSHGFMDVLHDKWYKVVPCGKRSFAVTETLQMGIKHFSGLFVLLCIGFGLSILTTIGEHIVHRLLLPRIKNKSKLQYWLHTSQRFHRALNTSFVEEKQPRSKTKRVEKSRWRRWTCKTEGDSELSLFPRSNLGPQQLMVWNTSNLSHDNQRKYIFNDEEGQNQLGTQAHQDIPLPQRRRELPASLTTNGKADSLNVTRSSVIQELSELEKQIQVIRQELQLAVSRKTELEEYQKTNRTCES
Sequence of NR1/NR2A receptors (Q00959 20-1464 limits assumed, other chains not shown): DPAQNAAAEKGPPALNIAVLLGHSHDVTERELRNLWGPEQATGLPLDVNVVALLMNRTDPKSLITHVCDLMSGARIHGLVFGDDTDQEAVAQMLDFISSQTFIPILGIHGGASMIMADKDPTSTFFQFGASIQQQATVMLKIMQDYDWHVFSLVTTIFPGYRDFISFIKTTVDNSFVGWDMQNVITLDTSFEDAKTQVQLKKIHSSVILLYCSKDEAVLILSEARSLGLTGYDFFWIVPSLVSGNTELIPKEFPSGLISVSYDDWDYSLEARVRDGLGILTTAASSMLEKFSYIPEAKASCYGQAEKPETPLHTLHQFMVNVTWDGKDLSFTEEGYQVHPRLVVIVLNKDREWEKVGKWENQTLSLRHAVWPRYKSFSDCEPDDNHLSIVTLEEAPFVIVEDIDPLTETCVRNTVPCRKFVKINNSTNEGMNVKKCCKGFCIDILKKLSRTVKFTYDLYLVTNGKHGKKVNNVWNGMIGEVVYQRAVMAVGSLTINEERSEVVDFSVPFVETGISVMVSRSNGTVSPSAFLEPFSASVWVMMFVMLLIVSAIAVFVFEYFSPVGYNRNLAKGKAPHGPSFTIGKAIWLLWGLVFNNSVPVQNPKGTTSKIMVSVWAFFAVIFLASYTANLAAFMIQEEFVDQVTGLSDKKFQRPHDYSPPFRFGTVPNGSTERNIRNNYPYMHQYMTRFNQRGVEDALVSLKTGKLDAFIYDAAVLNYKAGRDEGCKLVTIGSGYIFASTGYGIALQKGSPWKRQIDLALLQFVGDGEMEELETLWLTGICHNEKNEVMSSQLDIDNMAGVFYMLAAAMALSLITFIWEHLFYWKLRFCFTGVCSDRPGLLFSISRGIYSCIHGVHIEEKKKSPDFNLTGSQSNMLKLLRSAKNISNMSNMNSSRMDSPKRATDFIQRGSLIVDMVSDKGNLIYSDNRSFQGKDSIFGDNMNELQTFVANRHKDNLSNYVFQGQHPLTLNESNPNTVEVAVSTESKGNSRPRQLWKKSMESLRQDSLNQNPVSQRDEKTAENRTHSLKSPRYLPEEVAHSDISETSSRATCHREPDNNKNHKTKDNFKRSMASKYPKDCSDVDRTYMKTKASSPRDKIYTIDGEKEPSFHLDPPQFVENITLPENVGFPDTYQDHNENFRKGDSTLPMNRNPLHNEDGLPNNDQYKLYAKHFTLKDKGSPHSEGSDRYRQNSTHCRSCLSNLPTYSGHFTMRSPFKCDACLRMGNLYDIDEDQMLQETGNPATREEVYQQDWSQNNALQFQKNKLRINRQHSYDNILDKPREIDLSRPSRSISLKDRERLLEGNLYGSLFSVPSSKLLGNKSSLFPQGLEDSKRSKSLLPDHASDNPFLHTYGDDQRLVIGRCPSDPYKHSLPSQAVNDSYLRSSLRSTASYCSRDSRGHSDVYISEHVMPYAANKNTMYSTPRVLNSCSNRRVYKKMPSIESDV

Q: Which results are given for `O=C(O)c1cc(=O)c2c(Cl)cc(Cl)cc2[nH]1` [5,7-dichlorokynurenic acid]?
A: effect on glycine-evoked NR1/NR3B currents (NR1/NR3B receptors; [1]): completely inhibits; effect on glycine-evoked NR1/NR3B currents (NR1/NR3B receptors; concentration of compound not given or dose-dependent, listed as 5, 7-di-Cl-Kynurenate): blocks; effect on glycine-evoked NR1/NR3B currents (NR1/NR3B receptors; concentration of compound not given or dose-dependent, listed as 5,7-dichlorokynurenate): completely abolished; effect on glycine-evoked NR1/NR3A currents (NR1/NR3A receptors; listed as 5, 7-di-Cl-Kynurenate): effectively blocked; effect on glycine-evoked NR1/NR3A currents (NR1/NR3A receptors; listed as 5,7-dichlorokynurenate): blocked

Q: For `NC1(C(=O)O)CC1` [ACPC], which “effect on glycine-evoked NR1/NR3B currents on co-application” value (NR1/NR3B receptors; 10 μM glycine) is on record?
A: Its value is “produces relative inhibition”.

Q: And the “effect on glycine-evoked NR1/NR3B currents” value (NR1/NR3B receptors; [1])?
A: Its value is “inhibited”.

Q: And the “NR1/NR3B current evoked by compound applied alone” value (NR1/NR3B receptors; [2])?
A: The value was “does not evoke detectable NR1/NR3B currents”.

Q: And the “NR1/NR2A currents on co-application with NMDA (co-agonist activity)” value (NR1/NR2A receptors; co-applied with 100 μM NMDA)?
A: The value was “evokes NR1/NR2A currents”.

Q: Which results are given for `NC(CCCP(=O)(O)O)C(=O)O` (stereo not shown) [APV, 2-amino-5-phosphonovalerate]?
A: effect on glycine-evoked NR1/NR3B currents (NR1/NR3B receptors): little or no effect; also recorded: has little effect; effect on glycine-induced NR1/NR3B current (NR1/NR3B receptors): actually potentiated glycine-evoked current somewhat; also recorded: did not block the glycine-induced current, and actually potentiated the current; effect on NR1/NR2A currents (NR1/NR2A receptors; compound 10 μM): blocks; effect on glycine-evoked NR1/NR3A currents (NR1/NR3A receptors): blocked the current only slightly

Q: Which results are given for `N[C@H](CO)C(=O)O` [D-serine]?
A: effect on glycine-evoked NR1/NR3B currents on co-application (NR1/NR3B receptors; 10 μM glycine): produces relative inhibition; effect on glycine-evoked NR1/NR3B currents (NR1/NR3B receptors; [1]): dose-dependently inhibits currents; also recorded: inhibited; also recorded: inhibits glycine-evoked responses in a dose-dependent fashion; NR1/NR3B current evoked by compound applied alone (NR1/NR3B receptors; [2]): evokes small NR1/NR3B currents alone; effect on glycine-evoked NR1/NR3A currents (NR1/NR3A receptors): effectively blocked

Q: What does the source list for `N[C@@H](CS)C(=O)O` [L-cysteine]?
A: effect on NR1/NR3B currents evoked by glycine (NR1/NR3B receptors; compound 50 μM, 5 μM glycine): have little effect or only slightly potentiate the current; effect on glycine-evoked NR1/NR3B currents (NR1/NR3B receptors; [1]): slightly potentiated

Q: Which results are given for `C[C@]12N[C@H](Cc3ccccc31)c1ccccc12` [MK801]?
A: effect on glycine-evoked NR1/NR3B currents (NR1/NR3B receptors): does not block and in fact appears to slightly potentiate; sensitivity of NR1/NR3B receptors to channel blocker compared to NR1/NR2A (NR2-containing) receptors (NR1/NR3B receptors): drastically less sensitive; effect on NR1/NR2A currents (NR1/NR2A receptors; compound 10 μM): complete blockade; effect on glycine-evoked NR1/NR3A currents (NR1/NR3A receptors): not only failed to block glycine-evoked currents of NR1/NR3A receptors, but actually potentiated these currents; also recorded: potentiates

Q: How did the “effect on NR1/NR2A currents” value (NR1/NR2A receptors; compound 12 μM) turn out when `CC12CC3CC(C)(C1)CC(N)(C3)C2` [Memantine] was run?
A: The value was “completely blocks”.

Q: With `[Mg+2]` [Mg^2+] as the compound, how does the “sensitivity of NR1/NR3B receptors to channel blocker compared to NR1/NR2A (NR2-containing) receptors” value (NR1/NR3B receptors; comparison with NR2 subunit-containing receptors) read?
A: Its value is “drastically less sensitive; also recorded: much less potently”.

Q: What about the “effect on glycine-induced NR1/NR3B current” value (NR1/NR3B receptors; compound 0.5 mM, 10 μM glycine, holding potential −60 mV) of the same compound?
A: Its value is “had no effect”.

Q: What about the “effect on glycine-evoked NR1/NR3B currents” value (NR1/NR3B receptors; [1]) of the same compound?
A: Its value is “weakly inhibits”.

Q: And the “effect on NR1/NR2A currents” value (NR1/NR2A receptors; compound 0.1 mM)?
A: Its value is “inhibition”.

Q: What about the “effect on glycine-evoked NR1/NR3A currents” value (NR1/NR3A receptors) of the same compound?
A: The value was “no inhibitory effect”.

Q: What about the “effect on glycine-evoked NR1/NR3A currents” value (NR1/NR3A receptors; higher glycine levels) of the same compound?
A: The value was “potentiates peak currents without affecting the steady state current”.

Q: And the “effect on glycine-evoked NR1/NR3A currents” value (NR1/NR3A receptors; low glycine levels)?
A: The value was “not only failed to block glycine-evoked currents of NR1/NR3A receptors, but actually potentiated these currents; also recorded: actually potentiates”.

Q: Which “NR1/NR3B current evoked by compound applied alone” value (NR1/NR3B receptors) does the source give for `CN[C@H](CC(=O)O)C(=O)O` [NMDA, N-methyl-D-aspartate] here?
A: Its value is “little or no effect”.

Q: And the “effect on glycine-evoked NR1/NR3B currents” value (NR1/NR3B receptors)?
A: The value was “little or no effect; also recorded: does not potentiate”.

Q: Which “effect on NR1/NR3B currents evoked by glycine” value (NR1/NR3B receptors) does the source give for `N[C@@H](CCC(=O)O)C(=O)O` [glutamate] here?
A: Its value is “have little effect or only slightly potentiate the current”.
